Assay [1] relates to B1; d(CGGTACCG)2 (DNA, duplex) CGGTACCG
As to the kind of experiment: UV-VIS titration, chemometric (PCA) Scatchard analysis. The following applies: Na+ 10 mM (NaCl); 2.5 mM cacodylate pH 5.0; 0.01 mM ligand; microscopic constant.

Assay [2] relates to B3; D2; d(CGATATCG)2 (DNA, duplex) CGATATCG
Described as above. Conditions: Na+ 10 mM (NaCl); 2.5 mM cacodylate pH 5.0; 0.01 mM ligand; microscopic constant.

Assay [3] relates to B2; d(CGCTAGCG)2 (DNA, duplex) CGCTAGCG
Kind of assay: 2D NMR (NOESY) and restrained MD structure. The following applies: Na+ 10 mM (NaCl); 2.5 mM cacodylate pH 5.0; 5 °C; intercalation at TA/TA.

Assay [4] has as its system B4; d(CGTTAACG)2 (DNA, duplex) CGTTAACG
As to the kind of experiment: UV-VIS titration, chemometric (PCA) Scatchard analysis. Conditions: Na+ 10 mM (NaCl); 2.5 mM cacodylate pH 5.0; 0.01 mM ligand; microscopic constant.

Assay [5] deals with B2; d(CGCTAGCG)2 (DNA, duplex) CGCTAGCG
The assay is described as above. The following applies: Na+ 10 mM (NaCl); 2.5 mM cacodylate pH 5.0; 0.01 mM ligand; microscopic constant.

The test system of assay [6] is B3; D2; d(CGATATCG)2 (DNA, duplex) CGATATCG
Kind of assay: 2D NMR (NOESY) and restrained MD structure. The following applies: Na+ 10 mM (NaCl); 2.5 mM cacodylate pH 5.0; 5 °C; intercalation at TA/TA.

The subject of another assay is D1 (DNA, duplex) CCCGGG. Kind of assay: 1H NMR. The following applies: Na+ 10 mM (NaCl); 2.5 mM cacodylate pH 5.0; intercalation at CG/CG.
The test system of assay [7] is D3; d(CCCTAGGG)2 (DNA, duplex) CCCTAGGG
As to the kind of experiment: 2D NMR (NOESY) and restrained MD structure. The following applies: Na+ 10 mM (NaCl); 2.5 mM cacodylate pH 5.0; 5 °C; intercalation at TA/TA.

Assay [8] relates to D8 (DNA, duplex) CTAGCTAG
Kind of assay: 1H NMR. The following applies: Na+ 10 mM (NaCl); 2.5 mM cacodylate pH 5.0; intercalation at TA/TA.

In assay [9] the test system is D4 (DNA, duplex) GGGTACCC
Kind of assay: 1H NMR. Conditions: Na+ 10 mM (NaCl), 2.5 mM cacodylate pH 5.0.

Assay [10] concerns D7 (DNA, duplex) GTACGTAC
Kind of assay: 1H NMR. Conditions: Na+ 10 mM (NaCl); 2.5 mM cacodylate pH 5.0; intercalation at TA/TA.

For assay [11], the system named is B3; D2; d(CGATATCG)2 (DNA, duplex) CGATATCG
As to the kind of experiment: 1H NMR titration. Conditions: Na+ 10 mM (NaCl), 2.5 mM cacodylate pH 5.0, unspecific.

Where [12] appears, read: unspecific, no intercalation site, duplex:ligand 1:1.5.

For `CN(C)CCCNc1ccc2nnn3c4ccc(O)cc4c(=O)c1c23`, the Dissociation constant in [1] is 0.145 µM; in [2] it was 0.608 µM; in [4], 0.248 µM; in assay [5], 0.227 µM. In assay [3], the binding result was “yes”.

Take `CCN(CC)CCNc1ccc2ncn3c4ccc(O)cc4c(=O)c1c23`: the binding entry in [6] was “yes”; in the assay on D1 (DNA, duplex) CCCGGG, “yes”; in assay [7] it was “yes”; in assay [8] it was “yes”; in assay [9] (intercalation at TA/TA) it was “yes”; in [10] it was “yes”. For the same compound, the values for the Dissociation constant in assay [1], in [2] and in assay [5] were 0.524 µM, 0.156 µM and 0.260 µM, respectively.

As to `Cc1ccc([N+](=O)[O-])c2c(NCCO)c3ccccc3nc12`, the binding result in [9] (setting [12]) and in assay [11] (weaker than C-283) was “weak” in each case.

Consider `CN(C)CCCNc1c2ccccc2nc2cccc([N+](=O)[O-])c12`, for which the binding entry is listed as “weak” in assay [9] (setting [12]) and “weak” in assay [11] (presumably minor groove at centre, no defined intercalation).

For the origin of these results see article PMC9977845 (2023).
